Measured values: US20230114207A1, “THE COMBINATION OF CYCLIN DEPENDENT KINASE 7 INHIBITOR AND IMMUNOTHERAPY FOR TREATMENT OF CANCER” (Dana-Farber Cancer Institute, Inc., priority 2019, published 2023)

Experiments:
DMS79 cells = experiment: BrdU analysis; assay type: cell-based, human; settings: 100 nM, 24 and 48 hour
Procedure: Cells were seeded in 6-well plates (0.5-1×10^6 cells/well) in media and treated with YKL-5-124 at indicated concentrations and time points. Prior to collection, cells were pulsed with […] BrdU (BD Biosciences, #559619) for 2-4 hr (depending on cell line doubling time) and collected by centrifugation. Hereafter cells were permeabilized, fixated and stained according to BrdU kit instruction (BD Biosciences, Cat #559619). Cells were gated for BrdU incorporation (FITC) and 7-aminoactinomycin D (7-AAD) to quantify cells in G1, S (BrdU positive) and G2/M.

RP orthotopic model = experiment: Treatment study in RP orthotopic SCLC model; assay type: in vivo, mouse
Procedure: (§1) All animal studies were reviewed and approved by the Institutional Animal Care and Use Committee (IACUC) at the New York University Langone Health (NYULH) and Dana-Farber Cancer Institute (DFCI). From 6 weeks of age, mice were induced with adenovirus-Cre recombinase (Ad-Cre) by intratracheal intubation to allow cre-lox-mediated recombination of floxed Rb1, p53 and p130 alleles. For syngeneic orthotopic models, ultrasound-guided transthoracic injection was performed using 200,000 RPP631, RP or RPP-MYC cells in 30 μL PBS directly into the lung of 6 to S-week-old C57BL/6 (Jackson Laboratory, Stock No: 000664). For OT-IT cell assay, OT-I mice were purchased from the Jackson Laboratory (Stock No: 003S31). Both males and females mice were used and all mice were maintained in accordance with the respective NYULH and DFCI on the care, welfare, and treatment of laboratory animals. […]
(§2) Animals were anesthetized with isoflurane to perform MRI of the lung field using BioSpec USR70/30 horizontal bore system (Bruker) to scan 24 consecutive sections. Tumor volumes within the whole lung were quantified using 3-D slicer software to reconstruct MRI volumetric measurements as described previously. […]

RPP GEMMs = experiment: Treatment study in autochthonous RPP GEMMs; assay type: in vivo, mouse
Procedure: as §1, §2

[1] = tested on: Cyclin K, the obligate binding partner of CDK12/13; experiment: Competitive pulldown assay (Bio-THZ1), Cyclin K; assay type: cell-based, mouse; settings: SCLC cells treated 6 hours
Procedure: Bio-THZ1 pulldown experiments followed by western blotting of enriched proteins was performed as described in Kwiatkowski, et al., Nature, 2014, 511, 616-620. Briefly, cells were treated with YKL-5-124 or DMSO for 6 hr (in vitro) or 72 hr (in vivo). Following treatment, cells were washed twice with cold PBS and then lysed in the following lysis buffer: 50 mM TrisHCI pH 8.0, 150 mM NaCl, 1% NP-40, 5 mM EDTA, 1 mM DTT, and protease/phosphatase cocktails. Following clearance, lysates were treated with biotinylated THZ1 for pulldown overnight at 4° C. Lysates were further incubated at room temperature for 3 hr to increase the efficiency of covalent bond formation. Lysates were then incubated with streptavidin agarose for pulldown for an additional 2-3 hr at 4° C. Agarose beads were washed 5 times with lysis buffer and then boiled in 2×SDS at 95° C. SDS-page resolved precipitated proteins were probed for the indicated proteins.

RPP orthotopic model = experiment: Treatment study in RPP orthotopic SCLC model; assay type: in vivo, mouse
Procedure: as §1, §2

RPP631 cells = experiment: Bulk RNA-sequencing and GSEA; assay type: cell-based, mouse; settings: 48 hr
Procedure: Paired-end reads were aligned to mouse mm10 genome using STAR (v2.5.2b). Reads with good mapping quality (MAPQ>30) that aligned to genomic exons were counted using featureCounts (mm10 Ensembl 93) to generate a table with counts for each gene. Differential gene expression analysis was performed using the R package DESeq2 using the lfcShrink function. […] Gene set enrichment analysis (GSEA) was performed on a list of genes ranked from high to low DESeq2 estimated fold-change using the GSEAPreRanked function with enrichment statistic classic and 1000 permutations.

[2] = tested on: CDK1 and CDK2 T-loop phosphorylation; experiment: Western blotting of CDK1 and CDK2 T-loop phosphorylation in SCLC lines; assay type: cell-based, mouse, human; settings: representative panel of SCLC lines, 24 hours; 'as low as'
Procedure: Cells in culture were collected by centrifuging at 1,500 rpm and then washed with ice-cold PBS twice to completely remove residual medium. RIPA lysis buffer (Thermo Fisher Scientific, Cat #89900) supplemented with Halt™ Protease and Phosphatase Inhibitor Cocktail (Thermo Fisher Scientific, Cat #78440) was added to cell pellets to extract protein. Protein concentrations in lysates were measured by Pierce™ BCA Protein Assay Kit (Thermo Fisher Scientific, Cat #23225) and followed by the addition of SDS loading buffer (6×) and heated at 95° C. for 5 min. Equal amount of protein samples was subjected to 4-20% gradient gel SDS-PAGE and transferred to a nitrocellulose membrane (Bio-Rad, Cat #1704271). The membrane was blocked in Odyssey® Blocking Buffer (LI-COR, Cat #927-50003) at room temperature for 1 hour and incubated with appropriate antibodies at 4° C. overnight (Key Resources Table). Antibodies were diluted in TBST (TBS with 0.1% Tween) with 20% LI-COR Odyssey Blocking Buffer. On the next day, the membrane was washed with TBST (TBS with 0.1% Tween) four times and incubated with appropriate secondary antibodies (LI-COR, anti-Rabbit, Cat #925-32213; anti-Mouse, Cat #925-68072) at room temperature for 1 hour. Membranes were imaged using the LI-COR Odyssey® Imaging System.

Structure (SMILES): C=CC(=O)Nc1ccc(C(=O)Nc2n[nH]c3c2CN(C(=O)N[C@H](CN(C)C)c2ccccc2)C3(C)C)cc1 [YKL-5-124]
- BrdU-incorporated S-phase cells (DMS79 cells): significant decrease
- added median survival benefit (RP orthotopic model; RP model, vs control): approximately 30 days
- tumor response / tumor growth (MRI tumor volume) (RP orthotopic model; RP orthotopic model): notably delayed tumor growth
- mice with more than 50% increase of tumor burden (RPP GEMMs; 3-week time point): none
- median overall survival (RPP GEMMs; RPP GEMMs): 56 days
- block of pulldown of Cyclin K [1]: failed to block
- added median survival benefit (RPP orthotopic model; RPP model, vs control): approximately 30 days
- tumor response / tumor growth (MRI tumor volume) (RPP orthotopic model; RPP orthotopic model, 2- to 3-week): significant tumor response
- expression of pro-inflammatory cytokines and chemokines incl. TNFα pathway components and Cxcl10 (heatmaps) (RPP631 cells): increased expression
- genes within GSEA terms associated with cell cycle, mitosis and E2F targets (RPP631 cells): downregulated
- expression of SCLC SE-associated genes (RPP631 cells; compared with THZ1): little effect
- 'Interferon gamma response', 'TNFα signaling' and 'Inflammatory response' Hallmarks signatures (GSEA) (RPP631 cells; three of the top five): most positively regulated
- concentrations robustly inhibiting CDK1 and CDK2 T-loop phosphorylation [2]: ≥ 50 nM
